# Experimental data reported in US20250281457A1, “TREATMENT OR PREVENTION OF DENGUE VIRAL INFECTION” (Janssen Pharmaceuticals, Inc., priority 2022, published 2025).
# Marks after values point to notes of the source that are not given here.
# Test: Safety and tolerability, TEAEs (Example 2)
# Format: in vivo, human
# Protocol: Safety and tolerability of Compound (a) was evaluated throughout the study, as described in Example 1.
smiles,measurement,setting,value
COc1cc(NC(C(=O)c2c[nH]c3ccc(OC(F)(F)F)cc23)c2ccc(Cl)cc2OC)cc(S(C)(=O)=O)c1 (stereo not shown) [Compound (a)],at least 1 TEAE reported,"Panel 3, Treatment D (800 mg, fasted)",9 (69.2%) # Participants (%)
same,at least 1 TEAE reported,"Panel 3, Treatment E (800 mg, fed, standardized breakfast)",6 (40.0%) # Participants (%)
same,at least 1 TEAE reported,"Panel 4, Treatment F (200 mg, fasted)",6 (46.2%) # Participants (%)
same,at least 1 TEAE reported,"Panel 4, Treatment G (200 mg, fed, standardized breakfast)",7 (58.3%) # Participants (%)
same,at least 1 TEAE reported,"Panel 5, Treatment H (50 mg, fasted)",5 (38.5%) # Participants (%)
same,at least 1 TEAE reported,"Panel 5, Treatment I (50 mg, fed, standardized breakfast)",8 (66.7%) # Participants (%)
same,"Safety and tolerability, overall conclusion","single doses 50-800 mg SF2a/b, fasted or fed",safe and well tolerated
